Data taken from PubChem BioAssay (NCI).
Several values for one entry are separate records, joined by “and”; a condition that tells them apart may be missing. Equal values may be shown once.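 96-well plates; 48 h exposure; 5 concentrations. Endpoints by linear interpolation between flanking doses. Not reached: highest tested concentration assigned. The concentration for 50% growth inhibition is given as GI50. Definition used: TGI = concentration required for complete inhibition of growth.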

Columns and labels:
Assay in all cases: NCI tumour cell line growth inhibition, 48 h
[1] = tested on: 786-0 renal
[2] = tested on: A498 renal
[3] = tested on: A549 NSCLC
[4] = tested on: ACHN renal
[5] = tested on: BT-549 breast
[6] = tested on: CAKI-1 renal
[7] = tested on: CCRF-CEM leukemia
[8] = tested on: COLO 205 colon
[9] = tested on: DU-145 prostate
[10] = tested on: EKVX NSCLC
[11] = tested on: HCC-2998 colon
[12] = tested on: HCT-116 colon
[13] = tested on: HCT-15 colon
[14] = tested on: HL-60(TB) leukemia
[15] = tested on: HOP-62 NSCLC
[16] = tested on: HOP-92 NSCLC
[17] = tested on: HS 578T breast
[18] = tested on: HT29 colon
[19] = tested on: IGROV1 ovarian
[20] = tested on: K-562 leukemia
[21] = tested on: KM12 colon
[22] = tested on: LOX IMVI melanoma
[23] = tested on: M14 melanoma
[24] = tested on: MALME-3M melanoma
[25] = tested on: MCF7 breast
[26] = tested on: MDA-MB-231 breast
[27] = tested on: MDA-MB-435
[28] = tested on: MDA-N
[29] = tested on: MOLT-4 leukemia
[30] = tested on: NCI-H226 lung
[31] = tested on: NCI-H23 lung
[32] = tested on: NCI-H460 lung
[33] = tested on: NCI-H522 lung
[34] = tested on: NCI/ADR-RES ovarian
[35] = tested on: OVCAR-3 ovarian
[36] = tested on: OVCAR-4 ovarian
[37] = tested on: OVCAR-8 ovarian
[38] = tested on: PC-3 prostate
[39] = tested on: RPMI-8226 leukemia
[40] = tested on: RXF 393 renal
[41] = tested on: SF-268 CNS
[42] = tested on: SF-295 CNS
[43] = tested on: SF-539 CNS
[44] = tested on: SK-MEL-28 melanoma
[45] = tested on: SK-MEL-5 melanoma
[46] = tested on: SK-OV-3 ovarian
[47] = tested on: SN12C renal
[48] = tested on: SNB-19 CNS
[49] = tested on: SNB-75 CNS
[50] = tested on: SR leukemia
[51] = tested on: SW-620 colon
[52] = tested on: T-47D breast
[53] = tested on: TK-10 renal
[54] = tested on: UACC-257 melanoma
[55] = tested on: UACC-62 melanoma
[56] = tested on: UO-31 renal
[57] = tested on: OVCAR-5 ovarian
[58] = tested on: SK-MEL-2 melanoma
[59] = tested on: U251 CNS

CC1C2CC(CC23OCC(CCl)O3)C1(C)C (stereo unspecified)
TGI [1]: > 100 µM | TGI [2]: > 100 µM | TGI [3]: > 100 µM | TGI [4]: > 100 µM | TGI [5]: > 100 µM | TGI [6]: > 100 µM | TGI [7]: > 100 µM | TGI [8]: > 100 µM | TGI [9]: > 100 µM | TGI [10]: > 100 µM | TGI [11]: > 100 µM | TGI [12]: > 100 µM | TGI [13]: > 100 µM | TGI [14]: > 100 µM | TGI [15]: > 100 µM | TGI [16]: > 100 µM | TGI [17]: > 100 µM | TGI [18]: > 100 µM | TGI [19]: > 100 µM | TGI [20]: > 100 µM | TGI [21]: > 100 µM | TGI [22]: > 100 µM | TGI [23]: > 100 µM | TGI [24]: > 100 µM | TGI [25]: > 100 µM | TGI [26]: > 100 µM | TGI [27]: > 100 µM | TGI [28]: > 100 µM | TGI [29]: > 100 µM | TGI [30]: > 100 µM | TGI [31]: > 100 µM | TGI [32]: > 100 µM | TGI [33]: > 100 µM | TGI [34]: > 100 µM | TGI [35]: > 100 µM | TGI [36]: > 100 µM | TGI [37]: > 100 µM | TGI [38]: > 100 µM | TGI [39]: > 100 µM | TGI [40]: > 100 µM | TGI [41]: > 100 µM | TGI [42]: > 100 µM | TGI [43]: > 100 µM | TGI [44]: > 100 µM | TGI [45]: > 100 µM | TGI [46]: > 100 µM | TGI [47]: > 100 µM | TGI [48]: > 100 µM | TGI [49]: > 100 µM | TGI [50]: > 100 µM | TGI [51]: > 100 µM | TGI [52]: > 100 µM | TGI [53]: > 100 µM | TGI [54]: > 100 µM | TGI [55]: > 100 µM | TGI [56]: > 100 µM

O=c1cc(/C=C/c2ccc(O)c(O)c2)cc(/C=C/c2ccc(O)c(O)c2)o1
GI50 [1]: 5.85 µM | TGI [1]: 50 µM and 23.2 µM | TGI [2]: 23.4 µM | GI50 [3]: 5.48 µM | TGI [3]: 50 µM and 18.9 µM | GI50 [4]: 4.01 µM | TGI [4]: 18.8 µM and 14.5 µM | GI50 [5]: 4.59 µM | TGI [5]: 38.1 µM and 16.8 µM | GI50 [6]: 4.92 µM | TGI [6]: 31.9 µM and 14.6 µM | GI50 [7]: 2.53 µM | TGI [7]: 27.1 µM and 4.86 µM | GI50 [8]: 19.1 µM | TGI [8]: 24.6 µM and 34.4 µM | GI50 [9]: 5.29 µM | TGI [9]: 20.2 µM and 22.1 µM | TGI [10]: 15 µM and 21.9 µM | TGI [11]: 19.3 µM | GI50 [12]: 4.17 µM | TGI [12]: 15.6 µM and 15.3 µM | GI50 [13]: 4.47 µM | TGI [13]: 24.1 µM and 18.1 µM | TGI [15]: 24.8 µM and 22.7 µM | GI50 [16]: 5.16 µM | TGI [16]: 47.6 µM and 17.3 µM | GI50 [17]: 3.96 µM | TGI [17]: 50 µM and 34 µM | GI50 [18]: 21.5 µM | TGI [18]: 23.7 µM and 56.8 µM | GI50 [19]: 5.24 µM | TGI [19]: 37.5 µM and 18.1 µM | TGI [20]: 8.35 µM | GI50 [21]: 5 µM | TGI [21]: 16 µM and 22.7 µM | GI50 [22]: 5.19 µM | TGI [22]: 50 µM and 19.4 µM | GI50 [23]: 8.94 µM | TGI [23]: 21.6 µM and 20.8 µM | GI50 [24]: 2.67 µM | TGI [24]: 22.2 µM and 19.1 µM | TGI [25]: 18.8 µM | GI50 [26]: 13.3 µM | TGI [26]: 28.3 µM and 39.8 µM | GI50 [27]: 3.15 µM | TGI [27]: 50 µM and 11.6 µM | GI50 [28]: 4.72 µM | TGI [28]: 50 µM and 17.1 µM | TGI [29]: 6.48 µM | GI50 [30]: 11 µM | TGI [30]: 35 µM and 33.4 µM | GI50 [31]: 3.49 µM | TGI [31]: 41.9 µM and 20.8 µM | GI50 [32]: 7.14 µM | TGI [32]: 50 µM and 21.6 µM | GI50 [33]: 1.45 µM | GI50 [34]: 12 µM | TGI [34]: 50 µM and 52.3 µM | GI50 [35]: 4.92 µM | TGI [35]: 15.2 µM and 22 µM | GI50 [36]: 3.17 µM | TGI [36]: 43.5 µM and 13.8 µM | GI50 [57]: 18.3 µM | TGI [57]: 24.2 µM and 42.2 µM | GI50 [37]: 5.5 µM | TGI [37]: 50 µM and 32 µM | GI50 [38]: 11 µM | TGI [38]: 19.9 µM and 27.7 µM | GI50 [39]: 2.25 µM | TGI [39]: 14.9 µM and 6.7 µM | GI50 [40]: 3.42 µM | TGI [40]: 18.9 µM and 9.11 µM | GI50 [41]: 4.17 µM | TGI [41]: 16.2 µM and 16.5 µM | GI50 [42]: 10.5 µM | TGI [42]: 19.8 µM and 22.2 µM | GI50 [43]: 3 µM | TGI [43]: 17.9 µM and 10.7 µM | TGI [58]: 22.7 µM and 34.5 µM | TGI [44]: 50 µM | GI50 [45]: 4.75 µM | TGI [45]: 18.1 µM and 19 µM | GI50 [46]: 13.1 µM | TGI [46]: 24.1 µM and 25.8 µM | GI50 [47]: 6.06 µM | TGI [47]: 25.2 µM and 23.7 µM | GI50 [48]: 5.8 µM | TGI [48]: 15.7 µM and 18 µM | GI50 [49]: 4.3 µM | TGI [49]: 18.5 µM and 15.5 µM | GI50 [50]: 1.99 µM | TGI [50]: 14.2 µM and 6.05 µM | GI50 [51]: 3.05 µM | TGI [51]: 50 µM and 12.3 µM | GI50 [52]: 1.95 µM | TGI [52]: 27.3 µM and 4.92 µM | GI50 [53]: 9.1 µM | TGI [53]: 50 µM and 20.9 µM | GI50 [59]: 3.61 µM | TGI [59]: 14.1 µM and 12.8 µM | GI50 [54]: 9.98 µM | TGI [54]: 29.4 µM and 27.5 µM | GI50 [55]: 2.5 µM | TGI [55]: 16.6 µM and 6.05 µM | TGI [56]: 14.6 µM
